The values that follow come from EP4806898A1, “HETEROARYL DERIVATIVE COMPOUND AND USE THEREOF” (Voronoi Inc., priority 2023, dated 2025).

One assay addresses T1, recombinant USP1 protein (Homo sapiens, UniProt O94782, DEL125-138/DEL229-408/DEL608-737).
T1 sequence (O94782 with tags, fused parts or gaps DEL125-138/DEL229-408/DEL608-737): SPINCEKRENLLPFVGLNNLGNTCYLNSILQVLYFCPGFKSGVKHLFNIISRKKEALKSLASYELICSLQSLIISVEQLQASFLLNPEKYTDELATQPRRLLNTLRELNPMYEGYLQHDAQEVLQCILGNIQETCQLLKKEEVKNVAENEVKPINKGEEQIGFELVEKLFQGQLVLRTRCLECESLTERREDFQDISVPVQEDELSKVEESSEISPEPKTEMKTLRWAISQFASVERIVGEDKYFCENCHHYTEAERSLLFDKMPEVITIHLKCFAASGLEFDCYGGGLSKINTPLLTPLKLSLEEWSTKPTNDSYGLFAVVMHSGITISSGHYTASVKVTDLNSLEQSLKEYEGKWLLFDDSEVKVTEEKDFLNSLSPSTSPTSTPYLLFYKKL
The assay can be described thus: Binding affinity to recombinant USP1 protein by differential scanning fluorimetry. Conditions: compound 100 µM; 0.03 mg/mL USP1 (Δ1-66, Δ125-138, Δ229-408, Δ608-737); Tm with compound minus Tm with DMSO; read-out: ΔTm (°C). The procedure, abridged:
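USP1 (Δ1-66, Δ125-138, Δ229-408, Δ608-737) at 0.03 mg/mL with dye in 50 mM Tris-HCl pH 8.0, 150 mM NaCl, 2% glycerol, 1 mM DTT; compounds at 100 µM final. Tm read on real-time PCR instrument; ΔTm = Tm with compound minus Tm with DMSO.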
(In general: Differential scanning fluorimetry follows unfolding on heating by fluorescence.)

The next assay concerns UWB1.289 cells. Nature of the assay: Cell proliferation inhibitory activity in BRCA1/2-mutant or HRD-positive cells (Cell Titer-Glo). The assay is classed as cell-based. Conditions: UWB1289; UWB1.289 cells, 144 hours after compound treatment, Cell Titer-Glo, 1.5 nM to 10 µM; read-out: GI50 UWB1.289 BRCA1 mut. Here is the method: <Experimental Example 2> Evaluation of Cell Proliferation Inhibitory Activity in BRCA1/2-Mutant or HRD-Positive Cells
To evaluate the inhibitory activity of the compound according to the present invention on the proliferation of BRCA1/2 mutants or homologous recombination deficient (HRD) positive cell lines, the following experiments were performed. UWB1.289 cells were cultured in medium (50% MEBM + 50% RPMI1640), and 1,000 cells were seeded in a well plate (black clear bottom 96-well plate, Corning) 16 to 24 hours prior to compound treatment. The compounds were diluted in dimethyl sulfoxide (3-fold serial dilution starting at 10 µM, for a total of 10 concentrations) and injected at 1 µl per well, resulting a final concentration range of […] to 10 µM. Measurements of live cells were performed by a reaction in a 37 °C and CO2 incubator for 144 hours after compound treatment. The cells were incubated for 10 minutes in an incubator using Cell Titer-Glo luminescent cell-viability reagent (Promega), and luminescence intensity thereof was measured using a reader (SynergyNeo2, Biotek). GI50 values were calculated using the GraphPad Prism version 8.4.3 (GraphPad software Inc., San Diego) program.

What is called ΔTm is the change in melting temperature against a reference sample. The GI50 is the concentration that inhibits growth by half.

`COCCNC(=O)c1cc2cnc(-c3c(OC)ncnc3C3CC3)nc2n1Cc1ccc(-c2nc(C(F)(F)F)cn2C(C)C)cc1` [Example 106, 2-(4-cyclopropyl-6-methoxypyrimidin-5-yl)-7-(4-(1-isopropyl-4-(trifluoromethyl)-1H-imidazol-2-yl)benzyl)-N-(2-methoxyethyl)-7H-pyrrolo[2,3-d]pyrimidine-6-carboxamide]: at recombinant USP1 protein, the ΔTm at 100 µM is > 5 °C. In the assay on UWB1.289 cells, the 50% growth inhibitory concentration (GI50) was < 0.1 µM.
The corresponding values for `COc1ncnc(C2CC2)c1-c1ncc2cc(C(=O)NC3CCN(C)CC3)n(Cc3ccc(-c4nc(C(F)(F)F)cn4C(C)C)cc3)c2n1` [Example 69, 2-(4-cyclopropyl-6-methoxypyrimidin-5-yl)-7-(4-(1-isopropyl-4-(trifluoromethyl)-1H-imidazol-2-yl)benzyl)-N-(1-methylpiperidin-4-yl)-7H-pyrrolo[2,3-d]pyrimidine-6-carboxamide] are > 5 °C and < 0.1 µM.
In the same order, the values of `[2H]C([2H])([2H])n1cc(C(F)(F)F)nc1-c1ccc(Cn2c(C(=O)NC)cc3cnc(-c4c(OC)ncnc4C4CC4)nc32)cc1` [Example 183, 2-(4-cyclopropyl-6-methoxypyrimidin-5-yl)-N-methyl-7-(4-(1-(methyl-d3)-4-(trifluoromethyl)-1H-imidazol-2-yl)benzyl)-7H-pyrrolo[2,3-d]pyrimidine-6-carboxamide] are > 5 °C and < 0.1 µM.
In the same order, the values of `COc1ncnc(C2CC2)c1-c1ncc2cc(C(=O)NC(C)(C)CO)n(Cc3ccc(-c4nc(C(F)(F)F)cn4C)cc3)c2n1` [Example 197, 2-(4-cyclopropyl-6-methoxypyrimidin-5-yl)-N-(1-hydroxy-2-methylpropan-2-yl)-7-(4-(1-methyl-4-(trifluoromethyl)-1H-imidazol-2-yl)benzyl)-7H-pyrrolo[2,3-d]pyrimidine-6-carboxamide] are > 5 °C and < 0.1 µM.
Turning to `COc1ncnc(C2CC2)c1-c1ncc2cc(C(=O)N3CC(N)C3)n(Cc3ccc(-c4nc(C(F)(F)F)cn4C(C)C)cc3)c2n1` [Example 99, (3-aminoazetidin-1-yl)(2-(4-cyclopropyl-6-methoxypyrimidin-5-yl)-7-(4-(1-isopropyl-4-(trifluoromethyl)-1H-imidazol-2-yl)benzyl)-7H-pyrrolo[2,3-d]pyrimidin-6-yl)methanone], the ΔTm at 100 µM at recombinant USP1 protein was > 5 °C. In addition, the GI50 with UWB1.289 cells was < 0.1 µM.
In the same order, the values of `COc1ncnc(C2CC2)c1-c1ncc2cc(C(=O)N3CCC(F)(F)C3)n(Cc3ccc(-c4nc(C(F)(F)F)cn4C(C)C)cc3)c2n1` [Example 73, (2-(4-cyclopropyl-6-methoxypyrimid in-5-yl)-7-(4-(1-isopropyl-4-(trifluoromethyl)-1H-imidazol-2-yl)benzyl)-7H-pyrrolo[2,3-d]pyrimidin-6-yl)(3,3-difluoropyrrolidin-1-yl)methanone] are > 5 °C and 0.1 to 0.5 µM.
In the same order, the values of `COc1ncnc(C2CC2)c1-c1ncc2cc(C(=O)NC3CN(C)C3)n(Cc3ccc(-c4nc(C(F)(F)F)cn4C(C)C)cc3)c2n1` [Example 110, 2-(4-cyclopropyl-6-methoxypyrimidin-5-yl)-7-(4-(1-isopropyl-4-(trifluoromethyl)-1H-imidazol-2-yl)benzyl)-N-(1-methylazetidin-3-yl)-7H-pyrrolo[2,3-d]pyrimidine-6-carboxamide] are > 5 °C and 0.1 to 0.5 µM.
In the same order, the values of `COc1ncnc(C2CC2)c1-c1ncc2cc(C(=O)N3CC(O)C3)n(Cc3ccc(-c4nc(C(F)(F)F)cn4C)cc3)c2n1` [Example 196, (2-(4-cyclopropyl-6-methoxypyrimid in-5-yl)-7-(4-(1-methyl-4-(trifluoromethyl)-1H-imidazol-2-yl)benzyl)-7H-pyrrolo[2,3-d]pyrimidin-6-yl) (3-hydroxyazetidi n-1-yl)methanone] are > 5 °C and < 0.1 µM.
Take `CNCCN(C)C(=O)c1cc2cnc(-c3c(OC)ncnc3C3CC3)nc2n1Cc1ccc(-c2nc(C(F)(F)F)cn2C(C)C)cc1` [Example 26, 2-(4-cyclopropyl-6-methoxypyrimidin-5-yl)-7-(4-(1-isopropyl-4-(trifluoromethyl)-1H-imidazol-2-yl)benzyl)-N-methyl-N-(2-(methylamino)ethyl)-7H-pyrrolo[2,3-d]pyrimidine-6-carboxamide]: the ΔTm at 100 µM at recombinant USP1 protein was > 5 °C. Besides, the GI50 in the assay with UWB1.289 cells was < 0.1 µM.
The corresponding values for `CCNC(=O)c1cc2cnc(-c3c(OC)ncnc3C3CC3)nc2n1Cc1ccc(-c2nc(C(F)(F)F)cn2C(C)C)cc1` [Example 4, 2-(4-cyclopropyl-6-methoxypyrimidin-5-yl)-N-ethyl-7-(4-(1-isopropyl-4-(trifluoromethyl)-1H-imidazol-2-yl)benzyl)-7H-pyrrolo[2,3-d]pyrimidine-6-carboxamide] are > 5 °C and < 0.1 µM.
In the same order, the values of `COc1ncnc(C2CC2)c1-c1ncc2cc(C(=O)NC3COC3)n(Cc3ccc(-c4nc(C(F)(F)F)cn4C(C)C)cc3)c2n1` [Example 13, 2-(4-cyclopropyl-6-methoxypyrimidin-5-yl)-7-(4-(1-isopropyl-4-(trifluoromethyl)-1H-imidazol-2-yl)benzyl) -N-(oxetan-3-yl)-7H-pyrrolo[2,3-d]pyrimidine-6-carboxamide] are > 5 °C and < 0.1 µM.
As for `CNC(=O)c1cc2cnc(-c3c(OC)ncnc3C3CC3)nc2n1Cc1ccc(-c2nc(C(F)(F)F)cn2C)cc1` [Example 43, 2-(4-cyclopropyl-6-methoxypyrimidin-5-yl)-N-methyl-7-(4-(1-methyl-4-(trifluoromethyl)-1H-imidazol-2-yl)benzyl)-7H-pyrrolo[2,3-d]pyrimidine-6-carboxamide], the ΔTm at 100 µM at recombinant USP1 protein is > 5 °C. Also, the GI50 in the assay on UWB1.289 cells was < 0.1 µM.
`CNC(=O)c1cc2cnc(-c3cccnc3OC)nc2n1Cc1ccc(-c2nc(C(F)(F)F)cn2C(C)C)cc1` [Example 147, 7-(4-(1-isopropyl-4-(trifluoromethyl)-1H-imidazol-2-yl)benzyl)-2-(2-methoxypyridin-3-yl)-N-methyl-7H-pyrrolo[2,3-d]pyrimidine-6-carboxamide]: on recombinant USP1 protein, the ΔTm at 100 µM is > 5 °C. In addition, the GI50 with UWB1.289 cells was < 0.1 µM.
In the same order, the values of `COc1ncnc(C2CC2)c1-c1ncc2cc(C(=O)N[C@@H](C)CCO)n(Cc3ccc(-c4nc(C(F)(F)F)cn4C)cc3)c2n1` [Example 191, (S)-2-(4-cyclopropyl-6-methoxypyrimidin-5-yl)-N-(4-hydroxybutan-2-yl)-7-(4-(1-methyl-4-(trifluoromethyl)-1H-imidazol-2-yl)benzyl)-7H-pyrrolo[2,3-d]pyrimidine-6-carboxamide] are > 5 °C and < 0.1 µM.
With `CNC(=O)c1cc2cnc(-c3c(OC(F)F)ncnc3C3CC3)nc2n1Cc1ccc(-c2nc(C(F)(F)F)cn2C(C)C)cc1` [Example 95, 2-(4-cyclopropyl-6-(difluoromethoxy)pyrimidin-5-yl)-7-(4-(1-isopropyl-4-(trifluoromethyl)-1H-imidazol-2-yl)benzyl)-N-methyl-7H-pyrrolo[2,3-d]pyrimidine-6-carboxamide], at recombinant USP1 protein, the ΔTm at 100 µM is > 5 °C. Besides, in the assay with UWB1.289 cells, the GI50 fell in the range of 0.1 to 0.5 µM.
